Results on one molecule are retold here after ChEMBL document CHEMBL1141507, “Entry into a new class of protein kinase inhibitors by pseudo ring design” (Bioorg Med Chem Lett, 2008).

Assay [1] deals with Cyclin-dependent kinase 2 (Homo sapiens, UniProt P24941). Briefly: Inhibition of CDK2.
The target in assay [2] is Proto-oncogene tyrosine-protein kinase Src (Homo sapiens, UniProt P12931). Description: Inhibition of cSrc.
The target of assay [3] is Mast/stem cell growth factor receptor Kit (Homo sapiens, UniProt P10721). Briefly: Inhibition of cKit.
The target of assay [4] is Angiopoietin-1 receptor (Homo sapiens, UniProt Q02763). Briefly: Inhibition of Tie2.
Assay [5] deals with Hepatocyte growth factor receptor (Homo sapiens, UniProt P08581). Description: Inhibition of cMet.
Assay [6] concerns the target Fibroblast growth factor receptor 1 (Homo sapiens, UniProt P11362). Briefly: Inhibition of FGFR1.
Assay [7] deals with Serine/threonine-protein kinase B-raf (Homo sapiens, UniProt P15056, V600E). Description: Inhibition of bRaf V599E mutant.
The nature of assay [8]: Inhibition of p38 kinase.
Assay [9] addresses T1, Ephrin type-B receptor 4 (Homo sapiens, UniProt P54760).
T1 sequence (P54760 whole entry): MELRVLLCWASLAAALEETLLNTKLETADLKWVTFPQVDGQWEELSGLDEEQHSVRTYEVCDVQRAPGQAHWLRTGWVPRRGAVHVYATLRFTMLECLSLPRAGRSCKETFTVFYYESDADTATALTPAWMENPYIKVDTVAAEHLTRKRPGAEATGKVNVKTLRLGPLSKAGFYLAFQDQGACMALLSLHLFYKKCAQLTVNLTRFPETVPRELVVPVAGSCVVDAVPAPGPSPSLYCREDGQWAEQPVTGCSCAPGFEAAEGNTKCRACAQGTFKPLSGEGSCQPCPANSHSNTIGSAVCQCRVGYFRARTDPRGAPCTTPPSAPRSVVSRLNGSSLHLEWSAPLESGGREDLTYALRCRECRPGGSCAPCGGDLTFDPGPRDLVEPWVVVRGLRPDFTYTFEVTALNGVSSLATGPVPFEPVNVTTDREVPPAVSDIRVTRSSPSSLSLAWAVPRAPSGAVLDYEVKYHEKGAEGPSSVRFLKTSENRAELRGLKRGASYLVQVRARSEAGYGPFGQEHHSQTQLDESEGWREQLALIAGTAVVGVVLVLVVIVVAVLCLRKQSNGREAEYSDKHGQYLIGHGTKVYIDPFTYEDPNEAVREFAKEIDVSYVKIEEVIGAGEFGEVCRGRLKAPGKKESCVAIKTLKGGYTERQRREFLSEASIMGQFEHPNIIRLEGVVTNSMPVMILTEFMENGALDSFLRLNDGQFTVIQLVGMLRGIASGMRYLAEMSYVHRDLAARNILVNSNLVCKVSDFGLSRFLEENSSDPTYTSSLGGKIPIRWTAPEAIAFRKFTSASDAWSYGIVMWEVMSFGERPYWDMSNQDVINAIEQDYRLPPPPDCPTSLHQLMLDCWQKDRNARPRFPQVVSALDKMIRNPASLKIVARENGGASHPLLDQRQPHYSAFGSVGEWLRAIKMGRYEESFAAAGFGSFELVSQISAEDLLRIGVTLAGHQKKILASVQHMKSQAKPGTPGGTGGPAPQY
Briefly: Inhibition of EphB4.

Assay [10] deals with T2, Receptor-type tyrosine-protein kinase FLT3 (Homo sapiens, UniProt P36888).
T2 sequence (P36888 whole entry): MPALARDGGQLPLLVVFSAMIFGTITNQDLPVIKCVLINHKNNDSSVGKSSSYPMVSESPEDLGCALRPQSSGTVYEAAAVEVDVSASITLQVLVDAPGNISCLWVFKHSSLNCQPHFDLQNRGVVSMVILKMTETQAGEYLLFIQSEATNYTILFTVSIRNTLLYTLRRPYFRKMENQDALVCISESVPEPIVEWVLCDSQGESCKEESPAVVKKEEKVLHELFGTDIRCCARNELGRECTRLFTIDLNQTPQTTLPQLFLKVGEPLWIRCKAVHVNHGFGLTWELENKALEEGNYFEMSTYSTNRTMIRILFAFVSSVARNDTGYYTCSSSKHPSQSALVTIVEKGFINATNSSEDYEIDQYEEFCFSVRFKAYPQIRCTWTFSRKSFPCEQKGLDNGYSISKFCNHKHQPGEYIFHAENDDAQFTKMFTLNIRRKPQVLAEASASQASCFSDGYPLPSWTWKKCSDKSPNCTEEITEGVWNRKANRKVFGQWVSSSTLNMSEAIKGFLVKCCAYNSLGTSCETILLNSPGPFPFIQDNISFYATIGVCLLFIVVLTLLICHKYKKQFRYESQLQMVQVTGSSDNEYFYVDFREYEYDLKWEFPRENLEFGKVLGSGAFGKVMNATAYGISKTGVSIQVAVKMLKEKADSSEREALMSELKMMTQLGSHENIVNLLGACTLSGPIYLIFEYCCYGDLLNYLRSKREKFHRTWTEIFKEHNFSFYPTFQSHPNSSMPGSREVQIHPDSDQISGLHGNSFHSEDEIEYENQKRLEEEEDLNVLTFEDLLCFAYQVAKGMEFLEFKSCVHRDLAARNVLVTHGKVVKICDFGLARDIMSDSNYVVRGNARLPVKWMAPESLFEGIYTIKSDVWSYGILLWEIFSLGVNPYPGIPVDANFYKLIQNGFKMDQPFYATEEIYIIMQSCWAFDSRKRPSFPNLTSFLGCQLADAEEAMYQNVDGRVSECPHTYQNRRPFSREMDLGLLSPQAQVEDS
Description: Inhibition of FLT3.

Assay [11] concerns the target Insulin-like growth factor 1 receptor (Homo sapiens, UniProt P08069). Description: Inhibition of IGF1R.
The nature of assay [12]: Inhibition of PKA.
Assay [13] has as its target Tyrosine-protein kinase JAK2 (Homo sapiens, UniProt O60674). Description: Inhibition of JAK2.
Assay [14] has as its target Vascular endothelial growth factor receptor 2 (Homo sapiens, UniProt P35968). Description: Inhibition of KDR.
Assay [15] concerns the target Tyrosine-protein kinase ABL1 (Homo sapiens, UniProt P00519).
Assay [16] addresses T3, Tyrosine-protein kinase receptor UFO (Homo sapiens, UniProt P30530).
T3 sequence (P30530 whole entry): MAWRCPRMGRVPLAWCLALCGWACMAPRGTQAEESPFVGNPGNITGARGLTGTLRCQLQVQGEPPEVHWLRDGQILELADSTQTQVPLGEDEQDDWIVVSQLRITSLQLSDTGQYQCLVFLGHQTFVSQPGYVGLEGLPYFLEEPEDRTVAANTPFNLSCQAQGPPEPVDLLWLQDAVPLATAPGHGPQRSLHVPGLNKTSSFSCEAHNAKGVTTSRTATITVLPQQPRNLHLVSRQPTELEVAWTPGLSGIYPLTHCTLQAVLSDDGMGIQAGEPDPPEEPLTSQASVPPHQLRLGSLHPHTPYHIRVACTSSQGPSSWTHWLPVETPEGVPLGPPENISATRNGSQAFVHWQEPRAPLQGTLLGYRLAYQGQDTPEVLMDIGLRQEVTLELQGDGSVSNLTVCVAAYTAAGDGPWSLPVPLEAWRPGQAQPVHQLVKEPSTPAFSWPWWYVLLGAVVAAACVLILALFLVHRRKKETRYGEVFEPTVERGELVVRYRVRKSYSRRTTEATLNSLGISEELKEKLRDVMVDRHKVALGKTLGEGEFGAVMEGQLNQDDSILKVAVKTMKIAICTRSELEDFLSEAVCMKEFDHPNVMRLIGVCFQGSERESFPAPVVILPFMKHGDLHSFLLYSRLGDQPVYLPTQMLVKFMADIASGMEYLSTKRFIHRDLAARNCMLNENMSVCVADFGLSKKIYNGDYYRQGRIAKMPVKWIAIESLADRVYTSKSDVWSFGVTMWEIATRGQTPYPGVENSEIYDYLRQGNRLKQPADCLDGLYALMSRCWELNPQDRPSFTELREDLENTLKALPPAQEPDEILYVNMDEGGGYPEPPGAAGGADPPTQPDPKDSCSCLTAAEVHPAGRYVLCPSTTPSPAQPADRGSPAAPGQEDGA
Briefly: Inhibition of Axl kinase.

Assay [17] deals with RAC-alpha serine/threonine-protein kinase (Homo sapiens, UniProt P31749). Description: Inhibition of PKB.

pIC50: −log10 of the molar value.

Sequence of Fibroblast growth factor receptor 1 (P11362 whole entry): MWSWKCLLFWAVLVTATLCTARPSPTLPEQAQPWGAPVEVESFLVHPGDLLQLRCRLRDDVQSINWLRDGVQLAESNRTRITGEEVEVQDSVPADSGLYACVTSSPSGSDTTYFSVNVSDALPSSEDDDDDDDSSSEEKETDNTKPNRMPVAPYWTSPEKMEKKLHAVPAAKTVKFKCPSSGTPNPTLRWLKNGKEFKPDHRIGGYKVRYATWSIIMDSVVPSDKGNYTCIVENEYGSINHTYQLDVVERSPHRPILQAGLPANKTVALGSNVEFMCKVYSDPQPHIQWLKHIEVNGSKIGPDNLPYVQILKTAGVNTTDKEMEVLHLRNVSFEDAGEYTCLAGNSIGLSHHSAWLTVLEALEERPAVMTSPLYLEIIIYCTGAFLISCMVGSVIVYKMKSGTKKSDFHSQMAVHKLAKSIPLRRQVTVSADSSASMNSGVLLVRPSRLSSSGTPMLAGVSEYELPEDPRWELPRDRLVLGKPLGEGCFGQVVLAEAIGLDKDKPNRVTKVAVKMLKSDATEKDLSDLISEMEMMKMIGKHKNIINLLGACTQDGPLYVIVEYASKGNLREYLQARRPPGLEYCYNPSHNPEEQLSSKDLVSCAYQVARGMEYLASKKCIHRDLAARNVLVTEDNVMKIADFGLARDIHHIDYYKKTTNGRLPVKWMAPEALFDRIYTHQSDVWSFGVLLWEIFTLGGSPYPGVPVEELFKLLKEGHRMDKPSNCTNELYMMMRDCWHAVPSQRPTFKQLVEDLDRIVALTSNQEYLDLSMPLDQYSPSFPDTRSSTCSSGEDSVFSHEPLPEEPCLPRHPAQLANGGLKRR
Sequence of Vascular endothelial growth factor receptor 2 (P35968 whole entry): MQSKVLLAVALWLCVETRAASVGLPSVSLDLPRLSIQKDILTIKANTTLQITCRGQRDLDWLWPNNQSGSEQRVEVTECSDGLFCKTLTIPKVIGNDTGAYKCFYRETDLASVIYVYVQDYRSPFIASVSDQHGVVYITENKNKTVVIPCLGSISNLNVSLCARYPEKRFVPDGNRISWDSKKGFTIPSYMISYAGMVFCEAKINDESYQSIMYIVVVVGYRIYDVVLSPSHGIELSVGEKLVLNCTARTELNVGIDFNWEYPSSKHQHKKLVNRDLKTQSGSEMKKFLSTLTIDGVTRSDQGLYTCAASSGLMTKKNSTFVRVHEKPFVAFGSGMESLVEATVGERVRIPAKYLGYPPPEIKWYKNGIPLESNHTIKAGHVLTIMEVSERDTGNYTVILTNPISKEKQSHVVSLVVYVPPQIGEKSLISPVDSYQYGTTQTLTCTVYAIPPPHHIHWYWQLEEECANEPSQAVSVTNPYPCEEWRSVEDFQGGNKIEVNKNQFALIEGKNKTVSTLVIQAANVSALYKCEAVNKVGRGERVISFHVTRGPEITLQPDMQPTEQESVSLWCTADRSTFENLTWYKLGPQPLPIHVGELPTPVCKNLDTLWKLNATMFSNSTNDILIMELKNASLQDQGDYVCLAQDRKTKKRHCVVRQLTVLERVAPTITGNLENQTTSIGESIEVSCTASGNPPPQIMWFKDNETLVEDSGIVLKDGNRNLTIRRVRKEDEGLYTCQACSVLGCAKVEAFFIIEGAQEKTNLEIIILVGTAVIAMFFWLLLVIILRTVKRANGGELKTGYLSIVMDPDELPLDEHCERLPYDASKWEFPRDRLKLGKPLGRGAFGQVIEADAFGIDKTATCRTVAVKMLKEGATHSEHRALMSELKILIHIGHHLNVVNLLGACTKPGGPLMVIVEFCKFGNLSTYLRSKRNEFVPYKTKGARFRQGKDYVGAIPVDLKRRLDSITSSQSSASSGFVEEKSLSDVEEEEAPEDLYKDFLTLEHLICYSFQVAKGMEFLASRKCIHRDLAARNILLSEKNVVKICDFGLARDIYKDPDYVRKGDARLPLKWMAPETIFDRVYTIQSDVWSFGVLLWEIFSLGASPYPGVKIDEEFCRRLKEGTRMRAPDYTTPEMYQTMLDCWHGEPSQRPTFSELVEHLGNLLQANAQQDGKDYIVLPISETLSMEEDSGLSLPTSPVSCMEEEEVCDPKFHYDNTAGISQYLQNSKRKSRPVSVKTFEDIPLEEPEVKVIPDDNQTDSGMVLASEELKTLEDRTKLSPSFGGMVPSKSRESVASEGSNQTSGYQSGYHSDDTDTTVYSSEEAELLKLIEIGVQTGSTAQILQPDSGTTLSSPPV
Sequence of Insulin-like growth factor 1 receptor (P08069 31-736 limits assumed): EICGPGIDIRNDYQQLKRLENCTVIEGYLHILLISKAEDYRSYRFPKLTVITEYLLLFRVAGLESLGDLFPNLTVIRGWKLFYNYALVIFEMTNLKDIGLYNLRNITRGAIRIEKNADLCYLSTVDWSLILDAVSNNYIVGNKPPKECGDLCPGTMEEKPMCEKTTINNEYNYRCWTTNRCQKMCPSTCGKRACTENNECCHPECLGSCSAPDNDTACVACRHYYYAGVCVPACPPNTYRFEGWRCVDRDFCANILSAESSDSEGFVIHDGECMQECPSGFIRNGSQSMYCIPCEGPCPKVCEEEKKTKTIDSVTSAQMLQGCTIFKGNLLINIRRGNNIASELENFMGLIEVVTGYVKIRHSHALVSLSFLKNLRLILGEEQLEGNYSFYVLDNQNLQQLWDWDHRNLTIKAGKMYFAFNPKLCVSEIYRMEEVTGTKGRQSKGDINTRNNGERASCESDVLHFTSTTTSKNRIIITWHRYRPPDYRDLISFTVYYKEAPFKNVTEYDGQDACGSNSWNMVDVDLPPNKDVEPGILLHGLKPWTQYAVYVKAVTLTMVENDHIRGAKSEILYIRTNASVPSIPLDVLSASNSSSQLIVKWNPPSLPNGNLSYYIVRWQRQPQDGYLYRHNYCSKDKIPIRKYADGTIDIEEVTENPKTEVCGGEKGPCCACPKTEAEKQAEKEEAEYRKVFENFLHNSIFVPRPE
Sequence of Insulin-like growth factor 1 receptor (P08069 741-1367 limits assumed): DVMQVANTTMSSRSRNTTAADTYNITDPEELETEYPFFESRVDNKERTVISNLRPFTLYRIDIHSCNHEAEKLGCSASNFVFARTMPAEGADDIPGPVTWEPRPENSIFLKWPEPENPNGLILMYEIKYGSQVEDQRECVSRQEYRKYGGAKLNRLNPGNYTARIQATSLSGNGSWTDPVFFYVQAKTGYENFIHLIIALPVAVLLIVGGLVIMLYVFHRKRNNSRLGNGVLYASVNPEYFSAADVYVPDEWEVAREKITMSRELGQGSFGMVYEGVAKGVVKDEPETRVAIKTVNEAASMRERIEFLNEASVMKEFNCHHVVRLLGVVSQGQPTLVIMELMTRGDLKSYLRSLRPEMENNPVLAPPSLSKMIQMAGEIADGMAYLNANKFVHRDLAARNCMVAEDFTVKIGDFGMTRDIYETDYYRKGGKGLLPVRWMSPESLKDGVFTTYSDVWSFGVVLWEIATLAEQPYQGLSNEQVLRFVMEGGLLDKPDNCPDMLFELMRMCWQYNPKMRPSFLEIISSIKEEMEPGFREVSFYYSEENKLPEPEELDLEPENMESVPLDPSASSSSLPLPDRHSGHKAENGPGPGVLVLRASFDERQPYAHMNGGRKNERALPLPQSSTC
Sequence of Tyrosine-protein kinase JAK2 (O60674 whole entry): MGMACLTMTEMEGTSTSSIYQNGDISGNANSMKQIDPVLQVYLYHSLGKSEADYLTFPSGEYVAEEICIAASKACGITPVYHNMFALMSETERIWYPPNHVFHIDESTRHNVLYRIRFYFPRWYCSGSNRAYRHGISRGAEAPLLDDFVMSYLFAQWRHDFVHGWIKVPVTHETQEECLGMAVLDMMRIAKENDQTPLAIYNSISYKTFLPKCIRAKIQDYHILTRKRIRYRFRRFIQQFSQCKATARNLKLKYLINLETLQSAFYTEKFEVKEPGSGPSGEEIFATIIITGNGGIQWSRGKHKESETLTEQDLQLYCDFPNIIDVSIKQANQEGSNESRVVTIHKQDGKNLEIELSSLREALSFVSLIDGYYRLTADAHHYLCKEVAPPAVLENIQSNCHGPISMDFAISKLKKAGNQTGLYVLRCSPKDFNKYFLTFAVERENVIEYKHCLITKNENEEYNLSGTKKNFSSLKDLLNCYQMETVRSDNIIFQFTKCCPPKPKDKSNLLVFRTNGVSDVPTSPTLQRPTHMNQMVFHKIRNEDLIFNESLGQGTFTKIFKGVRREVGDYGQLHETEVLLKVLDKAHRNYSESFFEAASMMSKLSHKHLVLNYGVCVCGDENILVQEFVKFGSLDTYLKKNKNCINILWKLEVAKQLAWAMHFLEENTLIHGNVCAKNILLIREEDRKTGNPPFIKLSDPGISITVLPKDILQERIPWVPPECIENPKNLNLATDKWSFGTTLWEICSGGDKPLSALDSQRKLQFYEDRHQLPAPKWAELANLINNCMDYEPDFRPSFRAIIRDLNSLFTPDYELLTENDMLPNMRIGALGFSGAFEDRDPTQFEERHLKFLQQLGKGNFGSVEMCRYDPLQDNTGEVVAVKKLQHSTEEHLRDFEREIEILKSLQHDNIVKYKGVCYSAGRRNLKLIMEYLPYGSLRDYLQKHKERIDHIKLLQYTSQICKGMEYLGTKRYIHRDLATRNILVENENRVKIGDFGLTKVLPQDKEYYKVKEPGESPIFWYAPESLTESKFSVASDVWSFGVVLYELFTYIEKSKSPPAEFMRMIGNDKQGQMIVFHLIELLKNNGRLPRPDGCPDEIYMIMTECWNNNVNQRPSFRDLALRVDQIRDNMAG

For orientation: pIC50 means the IC50 on a negative log10 scale, so that one unit is a factor of ten. Read a low pIC50 as a high IC50. Regarding `CCN(CC)CCOc1ccc(Nc2cc(NC(=O)Nc3c(Cl)cccc3Cl)ncn2)cc1`, the pIC50 in assay [1] is less than 5.00; in assay [2], 7.18; in assay [3], 6.03; in assay [4], 6.52; in assay [5], less than 5.00; in [6] it was 6.24. In addition, the pIC50 in assay [7] was 6.82; in assay [8], 6.46; in assay [9], 6.37; in assay [10] it was less than 5.00; in assay [11] it was less than 5.00; in [12] it was less than 5.00. Also, the pIC50 in assay [13] is less than 5.00; in assay [14], 6.02; in assay [15], 6.60; in assay [16] it was less than 5.00; in assay [17], less than 5.00.
